Legend:
Glucocorticoid receptor [1] = target: T1, Glucocorticoid receptor (Homo sapiens, UniProt P04150); assay: Displacement of [3H]dexamethasone from human glucocorticoid receptor expressed in baculovirus infected Sf9 cells after overnight incubation by scintillation counting
T1 sequence (P04150 whole entry): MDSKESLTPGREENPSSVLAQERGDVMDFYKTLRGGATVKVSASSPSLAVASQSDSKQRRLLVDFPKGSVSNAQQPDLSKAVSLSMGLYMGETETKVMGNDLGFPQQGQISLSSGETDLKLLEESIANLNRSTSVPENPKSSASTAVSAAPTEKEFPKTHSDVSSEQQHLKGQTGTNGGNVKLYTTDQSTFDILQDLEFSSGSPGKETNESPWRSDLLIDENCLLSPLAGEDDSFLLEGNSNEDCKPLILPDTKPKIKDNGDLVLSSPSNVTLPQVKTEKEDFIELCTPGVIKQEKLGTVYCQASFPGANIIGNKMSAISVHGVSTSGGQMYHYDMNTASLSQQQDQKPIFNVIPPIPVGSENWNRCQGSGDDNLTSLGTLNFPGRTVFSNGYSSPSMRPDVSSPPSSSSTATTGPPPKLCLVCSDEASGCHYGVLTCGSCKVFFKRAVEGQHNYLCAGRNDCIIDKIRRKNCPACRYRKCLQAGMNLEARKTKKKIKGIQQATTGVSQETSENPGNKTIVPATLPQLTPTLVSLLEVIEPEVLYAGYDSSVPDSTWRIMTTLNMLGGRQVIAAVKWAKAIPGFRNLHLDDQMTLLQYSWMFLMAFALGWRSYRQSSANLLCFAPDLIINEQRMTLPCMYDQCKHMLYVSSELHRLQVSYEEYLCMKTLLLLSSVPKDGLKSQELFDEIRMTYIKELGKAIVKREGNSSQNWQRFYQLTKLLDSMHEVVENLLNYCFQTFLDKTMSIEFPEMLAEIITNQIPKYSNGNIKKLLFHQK

Glucocorticoid receptor [2] = target: T1, Glucocorticoid receptor; assay: Antagonist activity at human glucocorticoid receptor expressed in GRAF cells assessed as inhibition of dexamethasone-induced alkaline phosphatase expression after 48 hrs by reporter gene assay; assay type: functional, cell-based
Glucocorticoid receptor [3] = target: T2, Glucocorticoid receptor (Rattus norvegicus, UniProt P06536); assay: Antagonist activity at glucocorticoid receptor in rat hepatocytes assessed as inhibition of dexamethasone-induced […] expression incubated for 30 mins prior to dexamethasone-induction measured after 4 hrs by reporter gene assay; assay type: functional, cell-based, Hepatocyte
T2 sequence (P06536 whole entry): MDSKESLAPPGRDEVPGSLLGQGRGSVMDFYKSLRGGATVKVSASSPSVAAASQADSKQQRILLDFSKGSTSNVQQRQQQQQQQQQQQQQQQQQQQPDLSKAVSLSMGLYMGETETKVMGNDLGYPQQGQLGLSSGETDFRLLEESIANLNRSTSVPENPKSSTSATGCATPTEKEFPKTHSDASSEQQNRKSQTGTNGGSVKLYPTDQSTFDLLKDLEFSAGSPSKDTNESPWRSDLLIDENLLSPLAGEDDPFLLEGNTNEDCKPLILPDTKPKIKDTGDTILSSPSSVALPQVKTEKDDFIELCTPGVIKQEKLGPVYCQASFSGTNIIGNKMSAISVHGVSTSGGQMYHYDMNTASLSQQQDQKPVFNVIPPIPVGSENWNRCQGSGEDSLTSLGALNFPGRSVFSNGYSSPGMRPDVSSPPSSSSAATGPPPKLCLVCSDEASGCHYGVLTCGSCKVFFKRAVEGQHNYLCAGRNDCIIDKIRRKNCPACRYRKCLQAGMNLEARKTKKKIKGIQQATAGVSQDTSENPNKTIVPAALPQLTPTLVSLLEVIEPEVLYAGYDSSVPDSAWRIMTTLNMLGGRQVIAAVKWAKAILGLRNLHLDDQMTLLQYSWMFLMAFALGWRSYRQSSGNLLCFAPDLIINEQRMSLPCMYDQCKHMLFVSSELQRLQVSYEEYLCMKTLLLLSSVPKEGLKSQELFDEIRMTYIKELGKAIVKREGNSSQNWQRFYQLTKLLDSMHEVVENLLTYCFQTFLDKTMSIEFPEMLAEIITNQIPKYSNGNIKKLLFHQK

Glucocorticoid receptor [4] = target: T1, Glucocorticoid receptor; assay: Displacement of [3H]dexamethasone from human glucocorticoid receptor expressed in baculovirus infected Sf9 cells after 16-18 hrs by beta counting
Glucocorticoid receptor [5] = target: T1, Glucocorticoid receptor; assay: Antagonist activity at human glucocorticoid receptor expressed in CHOK1 cells assessed as inhibition of dexamethasone-induced alkaline phosphatase expression after 46 hrs by reporter gene assay; assay type: functional, cell-based, CHO-K1
Glucocorticoid receptor [6] = target: T2, Glucocorticoid receptor; assay: Antagonist activity at glucocorticoid receptor in rat H4IIE cells assessed as inhibition of dexamethasone-induced […] expression after 24 hrs by reporter gene assay; assay type: functional, cell-based

Row | SMILES | IC50 (Glucocorticoid receptor [1]) [nM] | IC50 (Glucocorticoid receptor [2]) [nM] | IC50 (Glucocorticoid receptor [3]) [nM] | IC50 (Glucocorticoid receptor [4]) [nM] | IC50 (Glucocorticoid receptor [5]) [nM] | IC50 (Glucocorticoid receptor [6]) [nM]
1 | O=C(O)Cc1cc(Br)c(N(Cc2ccc(Oc3ccc(C(F)(F)F)cc3C(F)(F)F)cc2)Cc2cc(F)cc(F)c2)c(Br)c1 | 111 | 421 | 2900 | – | – | –
2 | O=C(O)c1ccc(N(Cc2ccccc2)Cc2ccc(Oc3ccccc3)cc2)cc1 | > 9000 | – | – | – | – | –
3 | O=C(O)Cc1cc(Br)c(N(Cc2ccccc2)Cc2ccc(Oc3ccccc3)cc2)c(Br)c1 | 1200 | – | – | – | – | –
4 | Cc1c(NS(C)(=O)=O)cccc1N(Cc1ccc(Oc2ccc(F)c(OCC(=O)O)c2)cc1)Cc1cc(F)cc(F)c1 | 4.6 | 432 | 1880 | – | – | –
5 | O=C(O)Cc1ccc(N(Cc2ccccc2)Cc2ccc(Oc3ccccc3)cc2)cc1 | 1910 | – | – | – | – | –

Results, then the molecule that gave them:

Row | IC50 (Glucocorticoid receptor [1]) [nM] | IC50 (Glucocorticoid receptor [2]) [nM] | IC50 (Glucocorticoid receptor [3]) [nM] | IC50 (Glucocorticoid receptor [4]) [nM] | IC50 (Glucocorticoid receptor [5]) [nM] | IC50 (Glucocorticoid receptor [6]) [nM] | SMILES
6 | 1600 | – | – | – | – | – | COc1ccc(Oc2ccc(CN(Cc3cc(F)cc(F)c3)c3c(Br)cc(CC(=O)O)cc3Br)cc2)c(OC)c1
7 | 820 | – | – | – | – | – | O=C(O)Cc1cc(Br)c(N(Cc2ccc(Oc3ccccc3)cc2)Cc2cccc(F)c2)c(Br)c1
8 | 96 | 391 | 2600 | – | – | – | O=C(O)Cc1cc(Br)c(N(Cc2ccc(Oc3ccc(Cl)cc3Cl)cc2)Cc2cc(F)cc(F)c2)c(Br)c1
9 | 20 | 410 | 2490 | 19 | 400 | 2500 | COc1cc(C(=O)c2cccc(C)c2)c(Oc2c(Br)cc(CC(=O)O)cc2Br)cc1C(C)C
10 | 1280 | – | – | – | – | – | Cc1ccccc1Oc1ccc(CN(Cc2cc(F)cc(F)c2)c2c(Br)cc(CC(=O)O)cc2Br)cc1
